{
  "source": "patent US9512169B2",
  "about": "“3-substituted estra-1,3,5(10),16-tetraene derivatives, methods for the production thereof, pharmaceutical preparations containing same, and use thereof for the production of medicaments” (BAYER PHARMA AKTIENGESELLSCHAFT, priority 2012, dated 2016)",
  "key": {"AKR1C3 [1]": {"target": "T1, AKR1C3 (Homo sapiens (Human), UniProt P42330)", "T1 sequence (P42330 whole entry)": "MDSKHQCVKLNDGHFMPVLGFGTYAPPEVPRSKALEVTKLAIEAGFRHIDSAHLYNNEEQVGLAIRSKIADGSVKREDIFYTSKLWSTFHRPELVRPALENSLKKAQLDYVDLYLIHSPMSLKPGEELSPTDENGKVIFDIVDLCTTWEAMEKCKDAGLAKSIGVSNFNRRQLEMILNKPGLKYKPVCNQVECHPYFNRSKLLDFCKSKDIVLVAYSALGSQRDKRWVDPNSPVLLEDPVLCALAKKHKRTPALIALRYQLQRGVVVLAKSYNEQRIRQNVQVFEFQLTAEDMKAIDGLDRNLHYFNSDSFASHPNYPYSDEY", "test": "AKR1C3 enzyme inhibition assay (Coumberone to Coumberol fluorescence)", "type": "biochemical", "conditions": "recombinant human AKR1C3, 15 min pre-incubation, 90 min at 22° C.; repeated lines = two experimental determinations", "experimental": "The AKR1C3-inhibitory activity of the substances of the present invention was measured in the AKR1C3 assay described in the paragraphs below.\nEssentially, the enzyme activity is measured by quantification of the Coumberol from Coumberone (Halim, M., Yee, D. J., and Sames, D., J. AM. CHEM. SOC. 130, 14123-14128 (2008) and Yee, D. J., Balsanek, V., Bauman, D. R., Penning, T. M., and Sames, D., Proc. Natl. Acad. Sci. USA 103, 13304-13309 (2006)). In this test, the increase of the highly fluorescent Coumberol by NADPH- (nicotinamide adenine dinucleotide phosphate)-dependent reduction of the non-fluorescent Coumberone by AKR1C3 can be determined.\nThe enzyme used was recombinant human AKR1C3 (Aldo-keto reductase family 1 member C3) (GenBank Accession No. NM_003739). This was expressed in E. coli as GST (glutathione S transferase) fusion protein and purified by glutathione Sepharose affinity chromatography. The GST was removed by digestion with thrombin and subsequent size exclusion chromatography (Dufort, I., Rheault, P., Huang, X F., Soucy, P., and Luu-The, V., Endocrinology 140, 568-574 (1999)).\nFor the assay, 50 nl of a 100-fold concentrated solution of the test substance in DMSO were pipetted into a black low-volume 384-well microtiter plate (Greiner Bio-One, Frickenhausen, Germany), 2.0 μl of a solution of AKR1C3 in assay buffer [50 mM potassium phosphate buffer pH 7, 1 mM DTT, 0.0022% (w/v) Pluronic F-127, 0.01% BSA (w/v) and protease inhibitor cocktail (Complete, EDTA-free Protease Inhibitor Cocktail from Roche)] were added and the mixture was incubated for 15 min to allow pre-binding of the substances to the enzyme prior to the enzyme reaction. The enzyme reaction was then started by addition of 3 μl of a solution of NADPH (16.7 μM→final concentration in 5 μl of assay volume is 10 μM) and Coumberone (0.5 μM→final concentration in 5 μl of assay volume is 0.3 μM) in assay buffer, and the resulting mixture was incubated at 22° C. for the reaction time of 90 min. The concentration of the AKR1C3 was adapted to the respective activity of the enzyme preparation and adjusted such that the assay was carried out in the linear range. Typical concentrations were in the region of 1 nM. The reaction was stopped by addition of 5 μl of a stop solution consisting of the inhibitor EM-1404 [F. Labrie et al. U.S. Pat. No. 6,541,463, 2003] (2 μM→final concentration in […] is 1 μM). The fluorescence of the Coumberole was then measured at 520 nm (excitation at 380 nm) using a suitable measuring instrument (Pherastar from BMG Labtechnologies). The intensity of the fluorescence was used as a measure of the amount of Coumberole formed and thus of the enzyme activity of AKR1C3. The data were normalized (enzyme reaction without inhibitor=0% inhibition; all other assay components, but no enzyme=100% inhibition).\nAs described, the pharmacological substances claimed were examined for their inhibitory activity on the AKR1C3 enzyme (see Table 1). The compounds claimed show a strong inhibition of AKR1C3 in vitro (IC50 values <200 nM) and in most cases even IC50 values <50 nM."}, "AKR1C3 [2]": {"target": "T1, AKR1C3", "test": "AKR1C3 inhibition in a cell-based system (HEK293 cells transfected with AKR1C3 expression plasmid, coumberol fluorescence)", "conditions": "HEK293 cells transfected with AKR1C3, incubation overnight; repeated lines = independent determinations; read-out: Cellular AKR1C3 inhibition IC50", "experimental": "The inhibition of AKR1C3 by the substances described in the present invention was measured in a cell-based assay using […] as substrate for the AKR1C3 (Halim, M., Yee, D. J., and Sames, D., J. AM. CHEM. SOC. 130, 14123-14128 (2008) and Yee, D. J., Balsanek, V., Bauman, D. R., Penning, T. M., and Sames, D., Proc. Natl. Acad. Sci. USA 103, 13304-13309 (2006)) (cf. Example 20).\nThe cell system used were HEK293 cells (ATCC, USA) (cell culture medium: DMEM, 1.5 g glucose, 10% FCS, PSG). The cells were transfected in an AKR1C3 expression plasmid (pCMV6-AC-AKR1C3, GenBank Accession No. NM_003739.4) overnight (X-tremeGENE HP, Roche). The next morning, the cells were sown in black 96well cell culture plates at a cell density of 40000 cells/well (Greiner Bio-One, Frickenhausen, Germany). After 7 h, the cells were incubated with the test substances (dissolved in 100× concentration in DMSO, final concentration between 10^−11M and 10^−5M) and […] (dissolved in cell culture medium, final concentration 5×10^−6M) overnight. The next morning, the fluorescence of coumberol was measured at 535 nm (excitation at 355 nm) using a suitable measuring instrument (Mithras, from Berthold). The fluorescence intensity was used as a measure of the amount of coumberol formed and thus of the enzyme activity of AKR1C3. The data were normalized (transfected cells without inhibitor, only DMSO=0% inhibition; transfected cells, 10 μM inhibitor EM-1404 [F. Labrie et al. U.S. Pat. No. 6,541,463, 2003]=100% inhibition), and the IC50 values were calculated using a 4-parameter fit.\nIn the cell-based assay described above, the pharmacological substances claimed were examined for their inhibitory activity on the AKR1C3 enzyme (see Table 2)."}, "AKR1C3 [3]": {"target": "T1, AKR1C3", "test": "AKR1C3 binding by isothermal titration calorimetry", "set-up": "exothermal binding enthalpy: unit not given here", "conditions": "ITC, 25° C., PBS buffer", "experimental": "Binding of Example compound 1 to the AKR1C3 enzyme was measured by isothermal titration calorimetry. The degree of affinity of a given compound can be stated using the dissociation constant (KD value). Human AKR1C3 enzyme was prepared as described in Example 20. For ITC experiments, human AKR1C3 protein was transferred by gel permeation into a PBS buffer consisting of 137 mM NaCl, 2.7 mM KCl, 10 mM Na2HPO4, 2 mM KH2PO4 and 1 mM tris(2-carboxyethyl)phosphine hydrochloride. The compounds were dissolved in 100% DMSO at a concentration of 10 mM and then diluted with PBS buffer. Isothermal titration calorimetry experiments (ITC experiments) were carried out using an ITC200 titration calorimeter (GE Healthcare, Northampton, Mass., USA) at a temperature of 25° C. The change in enthalpy resulting from the injection of the protein was determined by integration of the calorimetric signal. The data were analyzed with Origin 7.0 (GE Healthcare, Northampton, Mass., USA). Heat of dilution values were determined using the last injection of the titration in question and subtracted prior to curve fitting. The protein concentration in the injection syringe was in the range from 80 to 120 μM, and the concentration of the compound to be measured was in the range from 5 to 20 μM."}},
  "note": "“And” between values parts separate entries of the source, which are not always exact repeats. Identical values can stand only once.",
  "data": [
    {"smiles": "C[C@]12CC[C@@H]3c4ccc(CCC(=O)O)cc4CC[C@H]3[C@@H]1CC=C2c1cncc(F)c1", "note": "[Example 1, 3-[17-(5-Fluoropyridin-3-yl)estra-1,3,5(10),16-tetraen-3-yl]propanoic acid]", "values": [
      {"measurement": "IC50", "setting": "AKR1C3 [1]", "value": "8 nM and 7.6 nM"},
      {"measurement": "IC50", "setting": "AKR1C3 [2]", "value": "40 nM and 52 nM and 157 nM"},
      {"measurement": "exothermal binding enthalpy", "setting": "AKR1C3 [3]", "value": "−1500"},
      {"measurement": "Kd", "setting": "AKR1C3 [3]; read-out: KD value (dissociation constant)", "value": 230, "unit": "nM"}
    ]}
  ]
}
